The values below are quoted from earlier work in patent publication US12544394B2, “Compositions and methods for treatment of fibrosis” (priority 2017, dated 2026).

For data set [1] the following is noted: humans, oral route of administration.
In the next data set the test system is liver fibrosis. The note with it: DLPC fed in chow (U.S. Pat. No. 5,284,835).
The subject of the next data set is steatosis. The note with it: vitamin E 400-1000 IU/day for 4-10 months.
For another data set, the system named is NASH. The note with it: patients with biopsy proven NASH, oral vitamin E supplementation.

As to `CCCCCCCCCCCC(=O)OC[C@H](COP(=O)([O-])OCC[N+](C)(C)C)OC(=O)CCCCCCCCCCC` [DLPC, 1,2-dilauroyl-sn-glycero-3-phosphocholine], in data set [1], the clinical effect entry is “no significant clinical effect”. In the data set on liver fibrosis, the liver fibrosis result is “slow liver fibrosis”.

On to `Cc1c(C)c2c(c(C)c1O)CC[C@@](C)(CCC[C@H](C)CCC[C@H](C)CCCC(C)C)O2` [vitamin E, Alpha-tocopherol], for which, in the data set with steatosis (decreased from 104.+−.61 IU/L, P<0.002), the “mean AST levels after treatment” value was 33.+−.11 IU/L. The “mean ALT levels after treatment” value in the data set with steatosis (decreased from 175.+−.106 IU/L, P<0.01) is 40.+−.26 IU/L. For the same compound, in the data set on NASH, the liver histology outcome is “improvement in hepatic steatosis and lobular inflammation but not portal inflammation or fibrosis”.
